What was measured:
[1] = system: ERK, AKT, mTOR, CREB, ACC and eNOS; assay: Western blot of signal transduction pathways in BCECs; assay type: cell-based, bovine
Experimental: (§1) Cells were allowed to reach-80% confluency in 12-well plates. […] At various time points, plates were taken out of the incubator and kept on ice. […] Lysates were collected and mixed with 4× Bolt LDS Sample Buffer (Novex, Carlsbad, CA) in the presence of Halt protease inhibitors and phosphatase inhibitor cocktail (ThermoFisher scientific, #NP0007). […] HUVECs (passage 6-8) were plated in EBM-2 basal medium (Lonza) with 0.2% FBS. Following overnight culture, cells were serum-starved in EBM-2 medium for 4 hrs prior to treatment with 50 ng/ml of VEGF165 or vehicle controls for various lengths. Equal amounts of protein lysates were analyzed by SDS-PAGE and blotted with the indicated antibodies. Proteins were transferred using Tris-Glycine buffer with 20% Methanol (Proteonomics grade) (Apex BioResearch Products). Membranes were first incubated with 5% milk in TBST, pH 7.6 (TEKnova, Hollister, CA), followed by blotting with primary and secondary antibodies. ECL anti-rabbit IgG, horseradish peroxidase linked whole antibody from donkey or sheep anti-mouse were obtained from GE Healthcare (UK limited). SuperSignal West Dura Extended Duration substrate was from ThermoFisher Scientific. In some cases, the same PVDF membranes were stripped by 8-min incubation in the Restore Plus Western Blot Stripping Buffer (ThermoFisher Scientific) to show total specific protein expression, followed by second stripping for (3-actin expression.

JNK/c-jun = assay: Western blot of JNK pathway activation in BCECs; assay type: cell-based, bovine
Experimental: (§2) Cells were allowed to reach-80% confluency in 12-well plates. […] At various time points, plates were taken out of the incubator and kept on ice. Cell monolayers were first washed once with ice-cold PBS before lysis with 250 μI of Pierce RIPA buffer (ThermoFisher Scientific, Rockford, IL) or use 50 mM Tris-HCl (pH 7.6), 150 mM NaCl, 10% Glycerol, 1% NP-40 containing protease/Phosphatase inhibitor cocktail (100×) (Cell signaling, #5872). Lysates were collected and mixed with 4× Bolt LDS Sample Buffer (Novex, Carlsbad, CA) in the presence of Halt protease inhibitors and phosphatase inhibitor cocktail (ThermoFisher scientific, #NP0007). The samples were subjected to SDS-PAGE (Bolt 4-12% Bis-Tris Plus, Invitrogen) using Bolt MES SDS running buffer or NuPAGE 3-8% Tris-Acetate gel using Tris-Acetate SDS running buffer (Novex). HUVECs (passage 6-8) were plated in EBM-2 basal medium (Lonza) with 0.2% FBS. Following overnight culture, cells were serum-starved in EBM-2 medium for 4 hrs prior to treatment with 50 ng/ml of VEGF165 or vehicle controls for various lengths. Equal amounts of protein lysates were analyzed by SDS-PAGE and blotted with the indicated antibodies. Proteins were transferred using Tris-Glycine buffer with 20% Methanol (Proteonomics grade) (Apex BioResearch Products). Membranes were first incubated with 5% milk in TBST, pH 7.6 (TEKnova, Hollister, CA), followed by blotting with primary and secondary antibodies. ECL anti-rabbit IgG, horseradish peroxidase linked whole antibody from donkey or sheep anti-mouse were obtained from GE Healthcare (UK limited). SuperSignal West Dura Extended Duration substrate was from ThermoFisher Scientific. In some cases, the same PVDF membranes were stripped by 8-min incubation in the Restore Plus Western Blot Stripping Buffer (ThermoFisher Scientific) to show total specific protein expression, followed by second stripping for (3-actin expression.

VEGFR2 = VEGFR2 western blot in BCECs (molecular mass, phosphorylation, PNGase F); assay type: cell-based, bovine
Experimental: Glycerol-free PNGase F was obtained from New England Biolabs (Ipswich, MA). Briefly, BCECs were lysed with NP-40 containing proteinase inhibitors (Thermo Scientific, Waltham, MA). Lysates were cleared at 4° C. at 5000 g for 25 mins. Total protein content was measured using Pierce BCA protein assay kit (Thermo Scientific). 20 mg of protein was mixed with 10× denaturing buffer and H2O to a total volume of […]. Glycoproteins were denatured at 100° C. for 10 mins, followed by adding Glycobuffer and PNGase F. The reaction was carried out at 37° C. for 2 hr.
as §1

Bip, CHOP, ATF-6 = assay: Western blot of UPR responsive proteins in BCECs; assay type: cell-based, bovine
ERK and AKT = assay: Western blot of ERK and AKT activation in HUVEC and hDMVECs; assay type: cell-based, human; conditions: 40 μM
Experimental: as §2, with “Membranes were first incubated with 5% milk in TBST, pH 7.6 (TEKnova, Hollister, CA), followed by blotting with primary and secondary antibodies. ECL anti-rabbit IgG, horseradish peroxidase linked whole antibody from donkey or sheep anti-mouse were obtained from GE Healthcare (UK limited). SuperSignal West Dura Extended Duration substrate was from ThermoFisher Scientific. In some cases, the same PVDF membranes were stripped by 8-min incubation in the Restore Plus Western Blot Stripping Buffer (ThermoFisher Scientific) to show total specific protein expression, followed by second stripping for (3-actin expression.” left out

O-glycan of BCEC lysates = assay: O-glycan analysis in BCEC lysates (MALDI-Tof); assay type: cell-based, bovine; conditions: 40 μM ManN
Experimental: For O-glycan analysis, homogenized cell samples were treated with 50 mM NaOH in presence of 1M NaBH4 for 16 hrs at 45° C. The reaction mixture was neutralized using ice-cold 30% acetic acid slowly. The neutralized reaction mixture was then passed over Dowex 50-X cation exchange resin to remove sodium ion and lyophilized. Excess boric acid generated during neutralization was then removed by co-evaporation using acidified methanol and methanol respectively. Finally the O-glycan was purified by passing over C18 cartridge. Dried and purified O-glycan was then methylated and used for O-glycan analysis after permethylation. Permethylated samples were then dissolved in absolute methanol and mixed with SDHB (Super-DHB) MALDI matrix in 1:1 v/v ratio and spotted on maldi plate. Mass spectral data was acquired using Bruker AutoFlex mass spectrometer at positive, reflectron mode. The mass spectral data were analyzed and annotated using GlycoWork Bench software and masses matched with the proposed structures were annotated. The mono-isotopic ion intensities are taken for calculation.

**Q.** For O=C1N[C@@H]2[C@@H](O)[C@@H](O)[C@H](O)[C@@H](CO)N2C1=O [Kif, Kifunensine, reference compound], which “activation of ERK and AKT in BCECs by glycosylation inhibitors” value ([1]; 40 μM, FIG. 7E) is on record?
**A.** significantly activate ERK and AKT

**Q.** What about the “activation of the JNK pathway by glycosylation inhibitors” value (JNK/c-jun; 40 μM, BCECs, FIG. 7E) of the same compound?
**A.** able to activate the JNK pathway

**Q.** And the “VEGFR2 molecular mass on SDS-PAGE after glycosylation inhibitors” value (VEGFR2; 24 hours)?
**A.** reduction in VEGFR2 molecular mass

**Q.** And the “Bip expression by glycosylation inhibitors” value (Bip, CHOP, ATF-6; media without growth factors for 24 hours)?
**A.** dose-dependent induction of Bip expression

**Q.** What about the “activation of ERK and AKT in human ECs by glycosylation inhibitors” value (ERK and AKT) of the same compound?
**A.** significantly activate ERK and AKT

**Q.** For N[C@H](C=O)[C@@H](O)[C@H](O)[C@H](O)CO [ManN, 2-Amino-2-deoxy-D-mannose], which “activation of eNOS and ACC” value ([1]; 40 μM ManN, within 10-30 minutes) is on record?
**A.** significantly activated

**Q.** What about the “activation of ERK, AKT, mTOR and CREB” value ([1]; 40 μM, BCECs) of the same compound?
**A.** activated

**Q.** And the “time to stimulation of ERK, AKT and CREB after adding ManN” value ([1]; 40 μM, BCECs)?
**A.** 10 to 30 min

**Q.** And the “activation of ERK, AKT and CREB with ManN plus VEGF vs either alone” value ([1]; both ManN and VEGF present)?
**A.** enhancement in activation

**Q.** What about the “activation of JNK and downstream c-Jun” value (JNK/c-jun; BCECs switched to media without growth factors, 4 μM-4 mM, four hours) of the same compound?
**A.** significantly activated by ManN in a dose-dependent manner

**Q.** What about the “concentration from which VEGFR2 apparent molecular mass shifts” value (VEGFR2; BCECs and BRECs) of the same compound?
**A.** ≥ 40 µM

**Q.** What about the “duration of ManN effects on protein mass in the absence of exogenous ManN” value (VEGFR2; BCECs, FIG. 4E) of the same compound?
**A.** at least 8 hours

**Q.** And the “protein mass of av integrin, Neuropilin-1, VE-cadherin and bFGFR1” value (VEGFR2; ManN in BCEC)?
**A.** affected as well

**Q.** What about the “VEGFR2 phosphorylation in response to VEGF” value (VEGFR2; ManN pre-treated cells) of the same compound?
**A.** decreased

**Q.** What about the “reversibility of VEGFR2 molecular mass change after ManN removal” value (VEGFR2; after 24 hours) of the same compound?
**A.** completely reverse

**Q.** What about the “ligand-independent VEGFR2 activation” value (VEGFR2; after ManN addition in BCECs) of the same compound?
**A.** No ligand-independent VEGFR2 activation

**Q.** What about the “dependence of ManN effects on VEGFR2 signaling” value (VEGFR2; experiments with axitinib) of the same compound?
**A.** not dependent on VEGFR2 signaling

**Q.** And the “specificity of VEGFR2 molecular mass shift” value (VEGFR2; hexosamines and derivatives at 40 μM, 24 hours)?
**A.** unique to ManN among hexosamines and their derivatives

**Q.** And the “extent of loss of VEGFR2 glycosylation (PNGase F treatment)” value (VEGFR2; μM concentrations of ManN)?
**A.** not all the glycosylation on VEGFR2 was abolished

**Q.** And the O-glycosylation (O-glycan of BCEC lysates)?
**A.** overall decrease in O-glycosylation

**Q.** What about the “synergy between ManN and VEGF in promoting Bip or CHOP expression” value (Bip, CHOP, ATF-6; FIG. 5B) of the same compound?
**A.** No synergy

**Q.** And the “time of CHOP induction” value (Bip, CHOP, ATF-6; ManN, dose-dependent)?
**A.** about 6 hours

**Q.** And the Bip expression (Bip, CHOP, ATF-6; growing cells deprived of growth factor, evident at 24 and 48 hours)?
**A.** significantly turn on Bip expression in a concentration-dependent manner

Reference: patent publication US20250275993A1, “GLYCOSYLATION INHIBITORS AS THERAPEUTICS FOR STROKE” (The Regents of the University of California, priority 2022, published 2025)
